Reference: patent publication US20100173873A1, “TREATMENT OF METASTASIZED TUMORS” (Novartis Vaccines and Diagnostics, Inc., priority 2005, published 2010)

Test system: PC-3M-luc tumor cells
Assay: PC-3M-luc bone metastatic prostate model
Type: in vivo, nude mice
Conditions: 15 mg/kg i.p. 3 times per week
Procedure: Cell lines. Metastatic human prostate cell line PC-3M expressing null p53, del PTEN, VEGFR, FGFR and stably transfected with a construct of luciferase were obtained under a licensing agreement with Xenogen.
In vivo efficacy studies. […]. Animals received sterile rodent chow and water ad libitum and were housed in sterile filter-top cages with 12 hour light/dark cycles. All experiments were conducted under the guidelines of the Association for Assessment and Accreditation of Laboratory Animal Care International. PC-3M luc bone metastatic model. Human prostate cancer cell line PC-3M-luc cells (1.5×10^6 cells) stably transfected with a construct of luciferase were injected via intracardiac injections. Bioluminescent imaging (Xenogen's IVIS® imaging system) was used to non-invasively monitor the in vivo growth and metastasis of PC-3M-luc tumors after cell inoculation. Nearly all PC-3M-luc tumor cell-injected animals developed prostate lesions, which were mainly localized in the femur, and mandibles. […]. Mice were monitored daily and were euthanized when moribund.
Immunohistochemistry. Bone (femurs, mandible) samples were decalcified (Protocol™, Fisher Diagnostics, Middletown, Va.). Paraffin blocks were sectioned to […] thickness and placed on positively charged glass slides. Tissues were stained with hematoxylin and eosin for general tissue morphology and identification of PC-3M cells in bone.
Nude mice were inoculated with PC-3M-Luc cells intracardiacally with 1.5×10^6 cells. […]. The PC-3M-luc cell lines were purchased from Xenogen and the mice were imaged using Xenogen's IVIS® imaging system.

CC(=O)O[C@H]1C(=O)[C@@]2(C)[C@H]([C@H](OC(=O)c3ccccc3)[C@]3(O)C[C@H](OC(=O)[C@H](O)[C@@H](NC(=O)c4ccccc4)c4ccccc4)C(C)=C1C3(C)C)[C@]1(OC(C)=O)CO[C@@H]1C[C@@H]2O [taxol, reference compound]
Treatment efficacy vs. vehicle: No difference in treatment efficacy
